Experimental data as given in ChEMBL document CHEMBL3885861, “Open TG-GATES”.

Species: Rattus norvegicus
Test: Open TG-GATES - Regimen: Daily Repeat
Assay type: toxicity, organism-based, Sprague-Dawley
Design: regimen Daily Repeat, gender Male, age 6 weeks
Conditions: in vivo, po, 30 mg/kg, route gavage, dose level Middle; for APTT / Bas / Eos / Fbg / Hb / Ht / Lym / MCHC / MCV / Mono / Neu / PT / Plat / RBC / Ret / WBC: tissue Blood; for KIDNEY_L / KIDNEY_R / KIDNEY_TOTAL: tissue Kidney; for LIVER: tissue Liver; for ALP / ALT / AST / BUN / CRE / Ca / Cl / DBIL / GLC / IP / K / LDH / Na / PL / RALB / TBIL / TC / TG / TP / gamma-GTP: tissue Plasma

`CS(=O)(=O)Nc1ccc([N+](=O)[O-])cc1Oc1ccccc1` [NIMESULIDE] was tested, and the TERMINAL_BW (72 h, time 3 day) was 222.3 g, the APTT (72 h, time 3 day) was 17.6 s and the Bas (72 h, time 3 day) was 0%. For the same compound, the Eos (72 h, time 3 day) was 1.2%, the Fbg (72 h, time 3 day) was 211.4 mg/dL and the Hb (72 h, time 3 day) was 13.8 g/dL. It also gave a Ht (72 h, time 3 day) of 41.1%, a Lym (72 h, time 3 day) of 68.6% and an MCHC (72 h, time 3 day) of 33.6%. For the same compound, the MCV (72 h, time 3 day) was 64 fL, the Mono (72 h, time 3 day) was 10.6% and the Neu (72 h, time 3 day) was 19.4%. It also gave a PT (72 h, time 3 day) of 11.3 s, a Plat (72 h, time 3 day) of 114.9 x10_4/uL and an RBC (72 h, time 3 day) of 642.4 x10_4/ul. The Ret (72 h, time 3 day) was 9%, the WBC (72 h, time 3 day) was 80.8 x10_2/uL and the KIDNEY_L (72 h, time 3 day) was 1 g. It also gave a KIDNEY_R (72 h, time 3 day) of 1.1 g, a KIDNEY_TOTAL (72 h, time 3 day) of 2.1 g and an LIVER (72 h, time 3 day) of 11.4 g. It also gave an ALP (72 h, time 3 day) of 888 IU/L, an ALT (72 h, time 3 day) of 38 IU/L and an AST (72 h, time 3 day) of 64.6 IU/L. The BUN (72 h, time 3 day) was 19.6 mg/dL, the CRE (72 h, time 3 day) was 0.6 mg/dL and the Ca (72 h, time 3 day) was 10.7 mg/dL. For the same compound, the Cl (72 h, time 3 day) was 104 meq/L, the DBIL (72 h, time 3 day) was 0.054 mg/dL and the GLC (72 h, time 3 day) was 196.8 mg/dL. The IP (72 h, time 3 day) was 8.2 mg/dL, the K (72 h, time 3 day) was 4.5 meq/L and the LDH (72 h, time 3 day) was 91.4 IU/L. For the same compound, the Na (72 h, time 3 day) was 140.8 meq/L, the PL (72 h, time 3 day) was 159.2 mg/dL and the RALB (72 h, time 3 day) was 4.1 g/dL. For the same compound, the TBIL (72 h, time 3 day) was 0.4 mg/dL, the TC (72 h, time 3 day) was 90.8 mg/dL and the TG (72 h, time 3 day) was 75.6 mg/dL. The TP (72 h, time 3 day) was 5.7 g/dL, the gamma-GTP (72 h, time 3 day) was 0.8 IU/L and the TERMINAL_BW ([…], time 7 day) was 250.1 g. It also gave a TERMINAL_BW ([…], time 14 day) of 313 g, a TERMINAL_BW ([…], time 28 day) of 399.9 g and an APTT ([…], time 7 day) of 17.5 s. It also gave a Bas ([…], time 7 day) of 0%, an Eos ([…], time 7 day) of 1.4% and a Fbg ([…], time 7 day) of 221.8 mg/dL. It also gave a Hb ([…], time 7 day) of 14 g/dL, a Ht ([…], time 7 day) of 41.4% and a Lym ([…], time 7 day) of 78.4%. It also gave an MCHC ([…], time 7 day) of 33.9%, an MCV ([…], time 7 day) of 63.3 fL and a Mono ([…], time 7 day) of 6%. The Neu ([…], time 7 day) was 14%, the PT ([…], time 7 day) was 11.2 s and the Plat ([…], time 7 day) was 135 x10_4/uL. The RBC ([…], time 7 day) was 655 x10_4/ul, the Ret ([…], time 7 day) was 6.6% and the WBC ([…], time 7 day) was 109.7 x10_2/uL. It also gave an APTT ([…], time 14 day) of 16.8 s, a Bas ([…], time 14 day) of 0% and an Eos ([…], time 14 day) of 1.2%. For the same compound, the Fbg ([…], time 14 day) was 227.6 mg/dL, the Hb ([…], time 14 day) was 14.2 g/dL and the Ht ([…], time 14 day) was 41.4%. It also gave a Lym ([…], time 14 day) of 76.2%, an MCHC ([…], time 14 day) of 34.4% and an MCV ([…], time 14 day) of 61.6 fL. It also gave a Mono ([…], time 14 day) of 6.6%, a Neu ([…], time 14 day) of 16.4% and a PT ([…], time 14 day) of 11.7 s. It also gave a Plat ([…], time 14 day) of 126.4 x10_4/uL, an RBC ([…], time 14 day) of 672.8 x10_4/ul and a Ret ([…], time 14 day) of 6.1%. The WBC ([…], time 14 day) was 127 x10_2/uL, the APTT ([…], time 28 day) was 18.5 s and the Bas ([…], time 28 day) was 0%. For the same compound, the Eos ([…], time 28 day) was 1%, the Fbg ([…], time 28 day) was 219.2 mg/dL and the Hb ([…], time 28 day) was 15.3 g/dL. The Ht ([…], time 28 day) was 45%, the Lym ([…], time 28 day) was 82.8% and the MCHC ([…], time 28 day) was 34.1%. It also gave an MCV ([…], time 28 day) of 58.1 fL, a Mono ([…], time 28 day) of 6% and a Neu ([…], time 28 day) of 10.4%. For the same compound, the PT ([…], time 28 day) was 11.7 s, the Plat ([…], time 28 day) was 112.1 x10_4/uL and the RBC ([…], time 28 day) was 775.2 x10_4/ul. For the same compound, the Ret ([…], time 28 day) was 2.8%, the WBC ([…], time 28 day) was 129 x10_2/uL and the KIDNEY_L ([…], time 7 day) was 1.1 g. The KIDNEY_R ([…], time 7 day) was 1.1 g, the KIDNEY_TOTAL ([…], time 7 day) was 2.2 g and the KIDNEY_L ([…], time 14 day) was 1.2 g. The KIDNEY_R ([…], time 14 day) was 1.3 g, the KIDNEY_TOTAL ([…], time 14 day) was 2.5 g and the KIDNEY_L ([…], time 28 day) was 1.4 g. It also gave a KIDNEY_R ([…], time 28 day) of 1.4 g, a KIDNEY_TOTAL ([…], time 28 day) of 2.8 g and an LIVER ([…], time 7 day) of 13 g. It also gave an LIVER ([…], time 14 day) of 17 g, an LIVER ([…], time 28 day) of 17.8 g and an ALP ([…], time 7 day) of 823.8 IU/L. The ALT ([…], time 7 day) was 36.6 IU/L, the AST ([…], time 7 day) was 60.6 IU/L and the BUN ([…], time 7 day) was 21.2 mg/dL. The CRE ([…], time 7 day) was 0.6 mg/dL, the Ca ([…], time 7 day) was 10.6 mg/dL and the Cl ([…], time 7 day) was 106 meq/L. It also gave a DBIL ([…], time 7 day) of 0.018 mg/dL, a GLC ([…], time 7 day) of 208.6 mg/dL and an IP ([…], time 7 day) of 7.5 mg/dL. For the same compound, the K ([…], time 7 day) was 4.5 meq/L, the LDH ([…], time 7 day) was 91.2 IU/L and the Na ([…], time 7 day) was 141.8 meq/L. For the same compound, the PL ([…], time 7 day) was 139.2 mg/dL, the RALB ([…], time 7 day) was 4.1 g/dL and the TBIL ([…], time 7 day) was 0.4 mg/dL. The TC ([…], time 7 day) was 74.2 mg/dL, the TG ([…], time 7 day) was 72.2 mg/dL and the TP ([…], time 7 day) was 5.9 g/dL. It also gave a gamma-GTP ([…], time 7 day) of 0.8 IU/L, an ALP ([…], time 14 day) of 888.2 IU/L and an ALT ([…], time 14 day) of 33 IU/L. The AST ([…], time 14 day) was 66.4 IU/L, the BUN ([…], time 14 day) was 23 mg/dL and the CRE ([…], time 14 day) was 0.6 mg/dL. It also gave a Ca ([…], time 14 day) of 10.7 mg/dL, a Cl ([…], time 14 day) of 105 meq/L and a DBIL ([…], time 14 day) of 0.004 mg/dL. It also gave a GLC ([…], time 14 day) of 195.4 mg/dL, an IP ([…], time 14 day) of 7.2 mg/dL and a K ([…], time 14 day) of 4.6 meq/L. The LDH ([…], time 14 day) was 82.2 IU/L, the Na ([…], time 14 day) was 141 meq/L and the PL ([…], time 14 day) was 155.2 mg/dL. The RALB ([…], time 14 day) was 4.1 g/dL, the TBIL ([…], time 14 day) was 0.4 mg/dL and the TC ([…], time 14 day) was 77 mg/dL. For the same compound, the TG ([…], time 14 day) was 120 mg/dL, the TP ([…], time 14 day) was 6 g/dL and the gamma-GTP ([…], time 14 day) was 1 IU/L. It also gave an ALP ([…], time 28 day) of 831.6 IU/L, an ALT ([…], time 28 day) of 37.2 IU/L and an AST ([…], time 28 day) of 65 IU/L. For the same compound, the BUN ([…], time 28 day) was 25.8 mg/dL, the CRE ([…], time 28 day) was 0.6 mg/dL and the Ca ([…], time 28 day) was 10.5 mg/dL. The Cl ([…], time 28 day) was 107.2 meq/L, the DBIL ([…], time 28 day) was 0.002 mg/dL and the GLC ([…], time 28 day) was 198.4 mg/dL. It also gave an IP ([…], time 28 day) of 7 mg/dL, a K ([…], time 28 day) of 4.6 meq/L and an LDH ([…], time 28 day) of 92.6 IU/L. It also gave a Na ([…], time 28 day) of 144 meq/L, a PL ([…], time 28 day) of 169 mg/dL and an RALB ([…], time 28 day) of 4.1 g/dL. It also gave a TBIL ([…], time 28 day) of 0.4 mg/dL, a TC ([…], time 28 day) of 80.4 mg/dL and a TG ([…], time 28 day) of 159.4 mg/dL. The TP ([…], time 28 day) was 6.3 g/dL and the gamma-GTP ([…], time 28 day) was 1.4 IU/L.
